Assay results taken from US20260226049A1, “NITROGEN-CONTAINING HETEROCYCLIC COMPOUND, PREPARATION METHOD THEREFOR, AND USE THEREOF” (BIVISION PHARMACEUTICALS, INC, priority 2023, published 2026).

Assays:
[1] = test system: HT1080 cell line with high FAP expression; assay: Therapeutic experiment of ^177Lu-labeled compounds in tumor-bearing mice; format: in vivo, Balb/c Nude mice; conditions: ^177Lu-labeled compound
Experimental: Balb/c Nude tumor-bearing mice (supplier: Shanghai Alamo Pharmaceutical Technology Co., Ltd., HT1080 cell line with high FAP expression) aged approximately 6-8 weeks were randomly assigned to 13 experimental groups based on tumor volume, with 5 mice per group. Animal body weight and tumor size were measured, and administration was initiated on the grouping day starting with Group 1 (control group: normal saline). General health and appearance were observed daily after the start of the experiment. Animal body weight and tumor size were measured before each sample collection time point. Any abnormal observations detected during the entire study period were required to be recorded in the raw data.
The synthesized compounds were labeled with ^177Lu and subsequently utilized in the therapeutic assay on mouse tumor models. […] Furthermore, no significant changes in mouse body weight (FIG. 8) were observed throughout the experimental period.
• TGI^TV: Relative tumor inhibition rate (TGI^TV): TGI^TV (%)=[1−(Ti−T0)/(Vi−V0)]×100%; • (Ti: average tumor volume of the treatment group on day i of administration, TO: average tumor volume of the treatment group on day 0 of administration; Vi: average tumor volume of the solvent control group on day i of administration, V0: average tumor volume of the solvent control group on day 0 of administration) • T/C: T/C % is one of the most commonly used indicators for tumor response to treatment: T/C %=T/C*100%; • (T represents the average tumor volume of the treatment group at a specific time point; C represents the average tumor volume of the control group at a specific time point.)
The differences between the treatment groups (tumor volumes of the second, third, fourth, and fifth groups) and the control group (tumor volume of the first group) and between the tumor volumes of the first, third, fourth, and fifth groups and the tumor volume of the second group were analyzed using the two-way ANOVA Fisher's LSD test method. P-values less than 0.05 were considered statistically significant. Both statistical significance and biological significance were taken into account during the result analysis.

[2] = target: T1, recombinant human fibroblast activation protein (FAP) (Homo sapiens, UniProt Q12884); assay: Selective assay, protease inhibition (FAP); format: biochemical; conditions: substrate Z-Gly-Pro-AMC
T1 sequence (Q12884 1-760): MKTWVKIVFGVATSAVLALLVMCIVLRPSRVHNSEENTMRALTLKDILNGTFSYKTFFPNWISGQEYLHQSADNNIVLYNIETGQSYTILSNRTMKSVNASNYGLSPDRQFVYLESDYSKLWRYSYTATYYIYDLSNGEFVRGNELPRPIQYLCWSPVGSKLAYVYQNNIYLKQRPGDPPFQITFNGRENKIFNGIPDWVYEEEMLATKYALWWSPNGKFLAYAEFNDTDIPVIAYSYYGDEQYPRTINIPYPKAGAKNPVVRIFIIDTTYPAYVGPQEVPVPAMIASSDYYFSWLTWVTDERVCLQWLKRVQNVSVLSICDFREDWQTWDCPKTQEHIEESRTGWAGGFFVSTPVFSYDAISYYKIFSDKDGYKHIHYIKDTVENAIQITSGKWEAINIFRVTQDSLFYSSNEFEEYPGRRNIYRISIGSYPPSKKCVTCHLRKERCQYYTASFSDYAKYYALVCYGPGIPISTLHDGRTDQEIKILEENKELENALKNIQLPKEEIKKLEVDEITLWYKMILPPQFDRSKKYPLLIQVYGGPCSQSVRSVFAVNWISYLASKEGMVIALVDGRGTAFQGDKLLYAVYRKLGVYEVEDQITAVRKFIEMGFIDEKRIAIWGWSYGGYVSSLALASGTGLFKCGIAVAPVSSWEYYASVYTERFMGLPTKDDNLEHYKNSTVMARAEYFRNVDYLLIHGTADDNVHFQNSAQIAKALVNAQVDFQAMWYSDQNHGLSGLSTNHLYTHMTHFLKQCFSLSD
Experimental: The specificity of the synthesized compounds against recombinant human dipeptidyl peptidase IV (DPPIV), fibroblast activation protein (FAP), or prolyl oligopeptidase (PREP) was expressed by their half-maximal inhibitory concentration (IC50) against the proteases.
1) The synthesized compound was dissolved in DMSO to a final concentration of 100 mM.
a) For FAP assay: The test compound was diluted to a 1 mM solution using a buffer of 50 mM Tris, 140 mM NaCl at pH 7.5.
2) The prepared 1 mM test compound solution was serially diluted (1:10) into a row of a 96-well plate using the corresponding buffer mentioned above.
3) The substrate was prepared as a DMSO stock solution (FAP and PREP: 2.5 mM Z-Gly-Pro-AMC (VWR, Cat. No. I-1145.0050BA) in DMSO; DPPIV: 100 mM Gly-Pro-AMC (VWR, Cat. No. 100042-646) in DMSO), and subsequently the substrate stock solution was diluted 20-fold using the corresponding buffer mentioned above.
4) The enzyme was diluted into the appropriate assay buffer. The final concentrations of DPPIV, FAP, and PREP were […], respectively. To each required well in columns 2-10, 180 μL was added separately. Column 1 (A, B, C) was prepared with 200 μL of the appropriate assay buffer as a control. […]
7) Fluorescence was measured at λex: 380, λem: 460. […]

N#C[C@@H]1CC(F)(F)CN1C(=O)CNC(=O)c1cccc2c1CCN(C(=O)CCC(=O)NCCNC(=O)CCC(C(=O)O)N1CCN(CC(=O)O)CCN(CC(=O)O)CCN(CC(=O)O)CC1)C2 (some centres unmarked) [JHH5] was tested, and the “therapeutic effects in mouse tumor model” value [1] was “dose-dependent therapeutic effects” and the IC50 [2] was 0.01 to 0.1 µM.
